From patent publication US10376481B2, “Compounds and methods for inhibiting NHE-mediated antiport in the treatment of disorders associated with fluid retention or salt overload and gastrointestinal tract disorders” (ARDELYX, INC, priority 2012, dated 2019)

What was measured:
Fecal recovery = format: in vivo, Sprague Dawley rats; conditions: male, Sprague-Dawley, faeces; rat, oral gavage 1 mg/kg, collection time 48 h
Method: Three male Sprague Dawley rats were administered 1 mg/kg test compound by oral gavage. Feces were collected from study animals from 0-48 or 0-72 hours after dosing, dried by lyophilization, and homogenized. Replicate aliquots of 40-60 mg each were subjected to extraction/protein precipitation with 7:1 acetonitrile:water and centrifuged. Supernatants were diluted 1:10 in 50:50 acetonitrile:water prior to analysis by LC-MS/MS. Compound concentrations, determined by interpolation from a standard calibration curve prepared in blank feces matrix, were converted to the percentage of dosed material recovered by taking into account the total collected fecal matter. The percent recovery for each rat was reported as the mean of the calculations from replicate samples. The overall percent recovery (Fecal Recovery [%]) was reported as the mean percent recovery from three rats. Accurate quality control sample recoveries were confirmed in each run and extraction efficiency was periodically verified.

human NHE3 [1] = molecular target: T1, human NHE3 (Homo sapiens, UniProt P48764); assay: Cell-based assay of NHE-3 activity (pre-incubation inhibition), human; conditions: for IC50: PS120 fibroblasts stably expressing human NHE3, 10 min pre-incubation with 0-30 μM test compound, read-out: pIC50 (human Preincubation assay) (converted); for % inhibition (human Preincubation assay): PS120 fibroblasts stably expressing human NHE3, pre-incubation with test compound
T1 sequence (P48764 26-834): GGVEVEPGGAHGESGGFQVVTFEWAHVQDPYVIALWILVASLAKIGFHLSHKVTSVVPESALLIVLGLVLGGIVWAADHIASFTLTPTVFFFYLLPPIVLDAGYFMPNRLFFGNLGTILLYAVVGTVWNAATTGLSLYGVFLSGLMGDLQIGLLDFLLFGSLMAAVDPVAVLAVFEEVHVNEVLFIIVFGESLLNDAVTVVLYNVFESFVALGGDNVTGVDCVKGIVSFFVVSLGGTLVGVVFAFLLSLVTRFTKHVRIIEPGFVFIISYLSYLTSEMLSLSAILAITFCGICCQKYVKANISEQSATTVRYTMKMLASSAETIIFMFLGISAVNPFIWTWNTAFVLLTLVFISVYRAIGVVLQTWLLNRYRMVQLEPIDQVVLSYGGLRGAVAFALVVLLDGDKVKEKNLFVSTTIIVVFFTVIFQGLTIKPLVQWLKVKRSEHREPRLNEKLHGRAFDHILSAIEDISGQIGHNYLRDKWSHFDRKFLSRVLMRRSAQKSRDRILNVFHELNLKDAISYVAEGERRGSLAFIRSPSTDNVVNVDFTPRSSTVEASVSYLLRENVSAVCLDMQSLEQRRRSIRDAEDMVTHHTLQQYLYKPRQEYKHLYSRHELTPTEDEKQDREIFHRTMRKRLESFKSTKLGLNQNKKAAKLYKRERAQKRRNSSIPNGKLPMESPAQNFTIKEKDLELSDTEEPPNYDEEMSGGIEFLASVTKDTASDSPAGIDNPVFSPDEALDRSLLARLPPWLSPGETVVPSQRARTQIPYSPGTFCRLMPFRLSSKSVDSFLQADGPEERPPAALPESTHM
Method: Rat and human NHE-3-mediated Na^+-dependent H^+ antiport was measured using a modification of the pH sensitive dye method originally reported by Paradiso (Proc. Natl. Acad. Sci. USA. (1984) 81(23): 7436-7440, which is hereby incorporated by reference in its entirety). PS120 fibroblasts stably expressing human NHE3 were obtained from Mark Donowitz (Baltimore, Md.). Opossum kidney (OK) cells were obtained from the ATCC and propagated per their instructions. The rat NHE-3 gene (GenBank M85300) was introduced into OK cells via electroporation, and cells were seeded into 96 well plates and grown overnight. Medium was aspirated from the wells then incubated for 30 min at 37° C. with NH4Cl-HEPES buffer (20 mM NH4Cl, 80 mM NaCl, 50 mM HEPES, 5 mM KCl, 2 mM CaCl2, 1 mM MgCl2, pH 7.4) containing 5 μM BCECF-AM. Cells were washed once with Ammonium free, Nat-free HEPES (100 mM choline, 50 mM HEPES, 10 mM glucose, 5 mM KCl, 2 mM CaCl2, 1 mM MgCl2, pH 7.4) and incubated in the same buffer for 10 minutes at room temperature to lower intracellular pH with 0-30 μM test compound. […] Changes in intracellular pH were monitored using a FLIPR Tetra® (Molecular Devices, Sunnyvale, Calif.) by excitation at λex 439 to 505 nm, and measuring BCECF fluorescence at λem 538 nm. The initial rate of the fluorescence ratio change was used as a measure of NHE-mediated Na^+/H^+ activity, and reported as the change in fluorescence ratio per minute. Initial rates were plotted as the average 2 or more replicates, and pIC50 values were estimated using GraphPad Prism.

human NHE3 [2] = molecular target: T1, human NHE3; assay: Cell-based assay of NHE-3 activity (human NHE3 inhibition assay); design: expressed in transfected cells; host or cells: Opossum kidney (OK) cells (ATCC), electroporated; conditions: OK cells with human NHE-3 gene, BCECF pH recovery, 0-30 μM test compound; read-out: Human NHE3 pIC50 (converted)
Summary of the method: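 Opossum kidney cells electroporated with rat or human NHE-3, loaded with 5 μM BCECF-AM in NH4Cl-HEPES pH 7.4 for 30 min at RT, then acidified 10 min in Na+-free choline HEPES. Na+-dependent pH recovery rates from BCECF fluorescence, averaged over ≥2 replicates, gave pIC50.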

| SMILES | dose excreted (Fecal recovery) [%] | IC50 (human NHE3 [1]) [nM] | % inhibition (human Preincubation assay) (human NHE3 [1]) | IC50 (human NHE3 [2]) [nM] |
| --- | --- | --- | --- | --- |
| CN(C)[C@H]1Cc2c(Cl)cc(Cl)cc2[C@@H]1Oc1ccc(S(=O)(=O)NCCOCCOCCNC(=O)COCC(=O)NCCOCCOCCNS(=O)(=O)c2ccc(O[C@H]3c4cc(Cl)cc(Cl)c4C[C@@H]3N(C)C)cc2)cc1 [Example 9, 2,2′-oxybis(N-(2-(2-(2-(4-((1S,2S)-4,6-dichloro-2-(dimethylamino)-2,3-dihydro-1H-inden-1-yloxy)phenylsulfonamido)ethoxy)ethoxy)ethyl)acetamide)] | 65.7 | < 100 | C (>70%) | < 100 |
| N[C@@H]1CCCN([C@H]2Cc3c(Cl)cc(Cl)cc3[C@@H]2Oc2ccc(S(=O)(=O)NCCOCCOCCNC(=O)NCCCCNC(=O)NCCOCCOCCNS(=O)(=O)c3ccc(O[C@H]4c5cc(Cl)cc(Cl)c5C[C@@H]4N4CCC[C@@H](N)C4)cc3)cc2)C1 [Example 3, (S,S,R)—N,N′-(10,17-dioxo-3,6,21,24-tetraoxa-9,11,16,18-tetraazahexacosane-1,26-diyl)bis(4-((1S,2S)-2-((R)-3-aminopiperidin-1-yl)-4,6-dichloro-2,3-dihydro-1H-inden-1-yloxy)benzenesulfonamide)] | 69.2 | < 100 | C (>70%) | < 100 |
| CN(C)[C@H]1Cc2c(Cl)cc(Cl)cc2[C@@H]1Oc1ccc(S(=O)(=O)NCCOCCOCCNC(=O)NCCCCNC(=O)NCCOCCOCCNS(=O)(=O)c2ccc(O[C@H]3c4cc(Cl)cc(Cl)c4C[C@@H]3N(C)C)cc2)cc1 [Example 1, (S,S)—N,N′-(10,17-dioxo-3,6,21,24-tetraoxa-9,11,16,18-tetraazahexacosane-1,26-diyl)bis(4-((1S,2S)-4,6-dichloro-2-(dimethylamino)-2,3-dihydro-1H-inden-1-yloxy)benzenesulfonamide)] | 87.7 | < 100 | C (>70%) | < 100 |

Further lines, results first:

| dose excreted (Fecal recovery) [%] | IC50 (human NHE3 [1]) [nM] | % inhibition (human Preincubation assay) (human NHE3 [1]) | IC50 (human NHE3 [2]) [nM] | SMILES |
| --- | --- | --- | --- | --- |
| 82.1 | < 100 | C (>70%) | < 100 | CN(C)[C@H]1Cc2c(Cl)cc(Cl)cc2[C@@H]1Oc1ccc(S(=O)(=O)NCCOCCOCCNC(=O)CCC(C)(N)CCC(=O)NCCOCCOCCNS(=O)(=O)c2ccc(O[C@H]3c4cc(Cl)cc(Cl)c4C[C@@H]3N(C)C)cc2)cc1 [Example 11, 4-amino-N1,N7-bis(2-(2-(2-(4-((1S,2S)-4,6-dichloro-2-(dimethylamino)-2,3-dihydro-1H-inden-1-yloxy)phenylsulfonamido)ethoxy)ethoxy)ethyl)-4-methylheptanediamide] |
| 66.8 | < 100 | C (>70%) | < 100 | O=C(NCCCCNC(=O)NCCOCCOCCNS(=O)(=O)c1ccc(O[C@H]2c3cc(Cl)cc(Cl)c3C[C@@H]2N2CC[C@@H](O)C2)cc1)NCCOCCOCCNS(=O)(=O)c1ccc(O[C@H]2c3cc(Cl)cc(Cl)c3C[C@@H]2N2CC[C@@H](O)C2)cc1 [Example 30] |
